Test results from ChEMBL document CHEMBL3885861, “Open TG-GATES”.

Species on record: Rattus norvegicus
Experiment: Open TG-GATES - Regimen: Single
Type: toxicity, organism-based, Sprague-Dawley
Set-up: regimen Single, gender Male, age 6 weeks
Details: in vivo, ip, 100 mg/kg, route intraperitoneal injection, dose level Low; for APTT / Bas / Eos / Fbg / Hb / Ht / Lym / MCH / MCHC / MCV / Mono / Neu / PT / Plat / RBC / Ret / WBC: tissue Blood; for KIDNEY_L / KIDNEY_R / KIDNEY_TOTAL: tissue Kidney; for LIVER: tissue Liver; for A/G / ALP / ALT / AST / BUN / CRE / Ca / Cl / DBIL / GLC / IP / K / LDH / Na / PL / RALB / TBIL / TC / TG / TP / gamma-GTP: tissue Plasma

N[C@H]1C(O)O[C@H](CO)[C@@H](O)[C@@H]1O (some centres not stated) [GLUCOSAMINE]
TERMINAL_BW (3 h): 188.6 g | APTT (3 h): 16.4 s | Bas (3 h): 0.4% | Eos (3 h): 1% | Fbg (3 h): 267.2 mg/dL | Hb (3 h): 13.3 g/dL | Ht (3 h): 41.3% | Lym (3 h): 75% | MCH (3 h): 21.3 pg | MCHC (3 h): 32.1% | MCV (3 h): 66.4 fL | Mono (3 h): 3.2% | Neu (3 h): 19.6% | PT (3 h): 15.7 s | Plat (3 h): 114.1 x10_4/uL | RBC (3 h): 623.2 x10_4/ul | Ret (3 h): 9.9% | WBC (3 h): 83.2 x10_2/uL | KIDNEY_L (3 h): 0.8 g | KIDNEY_R (3 h): 0.8 g | KIDNEY_TOTAL (3 h): 1.6 g | LIVER (3 h): 8.3 g | A/G (3 h): 0.9 | ALP (3 h): 1288 IU/L | ALT (3 h): 42.2 IU/L | AST (3 h): 84.6 IU/L | BUN (3 h): 10.4 mg/dL | CRE (3 h): 0.2 mg/dL | Ca (3 h): 10.6 mg/dL | Cl (3 h): 108.4 meq/L | DBIL (3 h): 0.01 mg/dL | GLC (3 h): 171.6 mg/dL | IP (3 h): 9.2 mg/dL | K (3 h): 4 meq/L | LDH (3 h): 70 IU/L | Na (3 h): 143.4 meq/L | PL (3 h): 147.8 mg/dL | RALB (3 h): 2.5 g/dL | TBIL (3 h): 0.054 mg/dL | TC (3 h): 80.8 mg/dL | TG (3 h): 36.8 mg/dL | TP (3 h): 5.2 g/dL | gamma-GTP (3 h): 1 IU/L | TERMINAL_BW (6 h): 186.1 g | APTT (6 h): 17.1 s | Bas (6 h): 0% | Eos (6 h): 0.8% | Fbg (6 h): 259.4 mg/dL | Hb (6 h): 12.8 g/dL | Ht (6 h): 39.3% | Lym (6 h): 67% | MCH (6 h): 21.5 pg | MCHC (6 h): 32.7% | MCV (6 h): 65.9 fL | Mono (6 h): 3.6% | Neu (6 h): 27.6% | PT (6 h): 16.9 s | Plat (6 h): 114.6 x10_4/uL | RBC (6 h): 596 x10_4/ul | Ret (6 h): 9.9% | WBC (6 h): 82.3 x10_2/uL | KIDNEY_L (6 h): 0.8 g | KIDNEY_R (6 h): 0.8 g | KIDNEY_TOTAL (6 h): 1.7 g | LIVER (6 h): 7.7 g | A/G (6 h): 0.9 | ALP (6 h): 1431.6 IU/L | ALT (6 h): 49.6 IU/L | AST (6 h): 94.2 IU/L | BUN (6 h): 8.8 mg/dL | CRE (6 h): 0.2 mg/dL | Ca (6 h): 10.1 mg/dL | Cl (6 h): 107.8 meq/L | DBIL (6 h): 0.006 mg/dL | GLC (6 h): 158 mg/dL | IP (6 h): 9.5 mg/dL | K (6 h): 3.9 meq/L | LDH (6 h): 58.6 IU/L | Na (6 h): 143.2 meq/L | PL (6 h): 144.2 mg/dL | RALB (6 h): 2.4 g/dL | TBIL (6 h): 0.054 mg/dL | TC (6 h): 80.2 mg/dL | TG (6 h): 40.2 mg/dL | TP (6 h): 5.1 g/dL | gamma-GTP (6 h): 1 IU/L | TERMINAL_BW (9 h): 185.8 g | APTT (9 h): 18.8 s | Bas (9 h): 0% | Eos (9 h): 0.8% | Fbg (9 h): 289.4 mg/dL | Hb (9 h): 12.9 g/dL | Ht (9 h): 39.8% | Lym (9 h): 68.4% | MCH (9 h): 21 pg | MCHC (9 h): 32.3% | MCV (9 h): 64.8 fL | Mono (9 h): 1.8% | Neu (9 h): 28.4% | PT (9 h): 16.1 s | Plat (9 h): 104 x10_4/uL | RBC (9 h): 614.4 x10_4/ul | Ret (9 h): 9.1% | WBC (9 h): 60.7 x10_2/uL | KIDNEY_L (9 h): 0.8 g | KIDNEY_R (9 h): 0.8 g | KIDNEY_TOTAL (9 h): 1.7 g | LIVER (9 h): 7.4 g | A/G (9 h): 0.9 | ALP (9 h): 1454.4 IU/L | ALT (9 h): 39 IU/L | AST (9 h): 83.4 IU/L | BUN (9 h): 8 mg/dL | CRE (9 h): 0.2 mg/dL | Ca (9 h): 10.4 mg/dL | Cl (9 h): 107 meq/L | DBIL (9 h): 0.008 mg/dL | GLC (9 h): 180 mg/dL | IP (9 h): 10.4 mg/dL | K (9 h): 3.6 meq/L | LDH (9 h): 54.8 IU/L | Na (9 h): 144 meq/L | PL (9 h): 142.2 mg/dL | RALB (9 h): 2.5 g/dL | TBIL (9 h): 0.056 mg/dL | TC (9 h): 78.8 mg/dL | TG (9 h): 35.6 mg/dL | TP (9 h): 5.3 g/dL | gamma-GTP (9 h): 1 IU/L | TERMINAL_BW (24 h): 202.9 g | APTT (24 h): 18.1 s | Bas (24 h): 0.2% | Eos (24 h): 1.6% | Fbg (24 h): 253.2 mg/dL | Hb (24 h): 12.8 g/dL | Ht (24 h): 39.2% | Lym (24 h): 69.2% | MCH (24 h): 20.8 pg | MCHC (24 h): 32.7% | MCV (24 h): 63.6 fL | Mono (24 h): 3% | Neu (24 h): 25.2% | PT (24 h): 16.2 s | Plat (24 h): 105.9 x10_4/uL | RBC (24 h): 616.8 x10_4/ul | Ret (24 h): 8.6% | WBC (24 h): 93.3 x10_2/uL | KIDNEY_L (24 h): 0.9 g | KIDNEY_R (24 h): 0.9 g | KIDNEY_TOTAL (24 h): 1.7 g | LIVER (24 h): 9 g | A/G (24 h): 0.9 | ALP (24 h): 1735.2 IU/L | ALT (24 h): 51.8 IU/L | AST (24 h): 81.4 IU/L | BUN (24 h): 14.2 mg/dL | CRE (24 h): 0.2 mg/dL | Ca (24 h): 10.6 mg/dL | Cl (24 h): 107.4 meq/L | DBIL (24 h): 0.014 mg/dL | GLC (24 h): 181.6 mg/dL | IP (24 h): 8.5 mg/dL | K (24 h): 4.2 meq/L | LDH (24 h): 134.8 IU/L | Na (24 h): 143.8 meq/L | PL (24 h): 160.4 mg/dL | RALB (24 h): 2.6 g/dL | TBIL (24 h): 0.036 mg/dL | TC (24 h): 83.4 mg/dL | TG (24 h): 76.6 mg/dL | TP (24 h): 5.6 g/dL | gamma-GTP (24 h): 1 IU/L
